Experimental data taken from US20240109917A1 (ACTELION PHARMACEUTICALS LTD, priority 2020, published 2024).

Target: PDGFRβ (Rattus norvegicus (Rat), UniProt Q05030)
Test: PDGFRβ Cellular Assay (PDGFRb P-Y751 HTRF in A10 cells stimulated with PDGF-BB)
Format: cell-based
Settings: read-out: PDGFR Cellular IC50
How it was run: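 Phospho-Y751 PDGFRβ was measured by HTRF in lysates of A10 rat cells. Cells received compound for 3 hours before PDGF-BB stimulation (100 ng/mL working stock).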

PDGFRβ, sequence (Q05030 32-1097): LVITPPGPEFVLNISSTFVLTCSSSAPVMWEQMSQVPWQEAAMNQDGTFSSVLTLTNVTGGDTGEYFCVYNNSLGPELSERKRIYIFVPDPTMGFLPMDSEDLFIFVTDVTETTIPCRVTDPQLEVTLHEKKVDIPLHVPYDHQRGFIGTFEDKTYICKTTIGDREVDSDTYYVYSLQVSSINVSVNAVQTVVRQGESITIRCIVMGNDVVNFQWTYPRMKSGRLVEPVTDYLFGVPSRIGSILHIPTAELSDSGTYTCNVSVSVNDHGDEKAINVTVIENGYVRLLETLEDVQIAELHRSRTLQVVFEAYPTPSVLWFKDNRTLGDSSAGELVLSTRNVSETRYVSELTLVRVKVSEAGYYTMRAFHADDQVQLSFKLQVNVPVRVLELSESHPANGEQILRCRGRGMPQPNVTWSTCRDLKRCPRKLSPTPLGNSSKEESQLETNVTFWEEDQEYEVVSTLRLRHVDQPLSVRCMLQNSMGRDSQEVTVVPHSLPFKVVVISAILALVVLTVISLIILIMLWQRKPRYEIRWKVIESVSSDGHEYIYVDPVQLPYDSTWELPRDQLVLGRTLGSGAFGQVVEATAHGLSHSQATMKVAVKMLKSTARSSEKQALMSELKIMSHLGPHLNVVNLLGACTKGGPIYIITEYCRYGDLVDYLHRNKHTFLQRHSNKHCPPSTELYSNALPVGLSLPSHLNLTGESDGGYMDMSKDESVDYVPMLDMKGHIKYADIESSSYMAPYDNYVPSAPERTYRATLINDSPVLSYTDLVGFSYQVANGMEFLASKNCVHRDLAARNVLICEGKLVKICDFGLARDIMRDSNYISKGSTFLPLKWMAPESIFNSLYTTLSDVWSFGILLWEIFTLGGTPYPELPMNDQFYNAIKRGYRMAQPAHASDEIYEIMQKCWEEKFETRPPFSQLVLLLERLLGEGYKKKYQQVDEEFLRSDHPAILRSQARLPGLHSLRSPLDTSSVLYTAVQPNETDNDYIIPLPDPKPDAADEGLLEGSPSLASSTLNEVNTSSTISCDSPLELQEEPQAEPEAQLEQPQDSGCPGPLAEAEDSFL

Row | Compound | IC50
1 | Cc1ncc(NC(=O)OCCN2CCCC2(C)C)cc1NC(=O)c1cnn2cc(-c3cnn(C)c3)sc12 [Example 247, 2-(2,2-dimethylpyrrolidin-1-yl)ethyl (6-methyl-5-(2-(1-methyl-1H-pyrazol-4-yl)pyrazolo[5,1-b]thiazole-7-carboxamido)pyridin-3-yl)carbamate] | 18.3 nM
2 | Cc1cc(C(=O)NCCN2CCCC2(C)C)sc1NC(=O)c1cnn2cc(-c3cncnc3)sc12 [Example 185, N-(5-((2-(2,2-dimethylpyrrolidin-1-yl)ethyl)carbamoyl)-3-methylthiophen-2-yl)-2-(pyrimidin-5-yl)pyrazolo[5,1-b]thiazole-7-carboxamide] | 42.6 nM
3 | Cc1ncc(C(=O)NCCN2CC3CCC2C3)cc1NC(=O)c1cnn2cc(-c3cn(C)nc3C)sc12 (stereo not shown) [Example 212, N-(5-((2-(2-azabicyclo[2.2.1]heptan-2-yl)ethyl)carbamoyl)-2-methylpyridin-3-yl)-2-(1,3-dimethyl-1H-pyrazol-4-yl)pyrazolo[5,1-b]thiazole-7-carboxamide] | 104 nM
4 | Cc1ncc(NC(=O)OCCN2CC3CCC2C3)cc1NC(=O)c1cnn2cc(-c3cnn(C)c3)sc12 (stereo not shown) [Example 250, 2-(2-azabicyclo[2.2.1]heptan-2-yl)ethyl (6-methyl-5-(2-(1-methyl-1H-pyrazol-4-yl)pyrazolo[5,1-b]thiazole-7-carboxamido)pyridin-3-yl)carbamate] | 299 nM
